Measured values as given in US12202843B2, “Muscarinic receptor agonists” (Nxera Pharma UK Limited, priority 2014, dated 2025).

Assays:
[1] = target: T1, human muscarinic M3 receptor (Homo sapiens, UniProt P20309); assay: Alphascreen Surefire phospho-ERK1/2 functional assay, M3; type: cell-based; conditions: CHO cells stably expressing human M3, relative to ACh
T1 construct: expressed in transfected cells

[2] = target: T2, human muscarinic M4 receptor (Homo sapiens, UniProt P08173); assay: Alphascreen Surefire phospho-ERK1/2 functional assay, M4; type: cell-based; conditions: for % Emax cf. ACh, M4: CHO cells stably expressing human M4, relative to ACh
T2 construct: expressed in transfected cells
T2 sequence (P08173 1-479): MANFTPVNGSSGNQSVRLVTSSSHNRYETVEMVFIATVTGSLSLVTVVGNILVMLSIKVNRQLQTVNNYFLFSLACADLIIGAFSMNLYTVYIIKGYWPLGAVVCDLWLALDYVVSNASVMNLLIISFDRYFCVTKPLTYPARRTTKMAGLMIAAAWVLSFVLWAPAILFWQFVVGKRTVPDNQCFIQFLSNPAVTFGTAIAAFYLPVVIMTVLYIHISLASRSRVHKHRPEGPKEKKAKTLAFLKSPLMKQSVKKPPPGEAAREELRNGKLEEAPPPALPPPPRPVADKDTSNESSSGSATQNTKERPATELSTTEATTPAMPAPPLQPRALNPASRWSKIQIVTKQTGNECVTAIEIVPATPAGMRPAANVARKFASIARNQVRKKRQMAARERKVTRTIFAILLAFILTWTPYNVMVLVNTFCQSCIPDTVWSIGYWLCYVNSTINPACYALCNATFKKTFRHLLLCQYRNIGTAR

[3] = target: T3, human muscarinic M2 receptor (Homo sapiens, UniProt P08172); assay: Alphascreen Surefire phospho-ERK1/2 functional assay, M2; type: cell-based; conditions: CHO cells stably expressing human M2, relative to ACh
T3 sequence (P08172 1-466): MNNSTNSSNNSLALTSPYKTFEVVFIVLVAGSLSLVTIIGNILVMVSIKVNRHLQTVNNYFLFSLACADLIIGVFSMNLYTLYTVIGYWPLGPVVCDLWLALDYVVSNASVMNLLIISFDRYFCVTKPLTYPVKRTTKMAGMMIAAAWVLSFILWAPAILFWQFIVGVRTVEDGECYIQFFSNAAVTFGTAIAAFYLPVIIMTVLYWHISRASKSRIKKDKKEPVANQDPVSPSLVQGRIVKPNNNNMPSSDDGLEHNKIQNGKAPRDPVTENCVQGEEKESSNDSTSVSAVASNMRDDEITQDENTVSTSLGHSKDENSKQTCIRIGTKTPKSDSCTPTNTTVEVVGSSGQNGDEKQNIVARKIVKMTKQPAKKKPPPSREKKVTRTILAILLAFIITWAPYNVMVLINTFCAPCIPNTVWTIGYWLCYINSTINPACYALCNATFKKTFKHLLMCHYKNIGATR

[4] = tested on: scopolamine-induced amnesia; assay: Passive avoidance, scopolamine-induced amnesia; type: in vivo; conditions: 90 minutes prior to training
Description: Studies were carried out as described previously by Foley et al., (2004) Neuropsychopharmacology. In the passive avoidance task scopolamine administration (1 mg/kg, i.p.) at 6 hours following training rendered animals amnesic of the paradigm. A dose range of 3, 10, and 30 mg/kg (po) free base, administered 90 minutes prior to the training period via oral gavage, was examined.

[5] = target: T4, human muscarinic M1 receptor (Homo sapiens, UniProt P11229); assay: Alphascreen Surefire phospho-ERK1/2 functional assay, M1; type: cell-based
T4 sequence (P11229 1-460): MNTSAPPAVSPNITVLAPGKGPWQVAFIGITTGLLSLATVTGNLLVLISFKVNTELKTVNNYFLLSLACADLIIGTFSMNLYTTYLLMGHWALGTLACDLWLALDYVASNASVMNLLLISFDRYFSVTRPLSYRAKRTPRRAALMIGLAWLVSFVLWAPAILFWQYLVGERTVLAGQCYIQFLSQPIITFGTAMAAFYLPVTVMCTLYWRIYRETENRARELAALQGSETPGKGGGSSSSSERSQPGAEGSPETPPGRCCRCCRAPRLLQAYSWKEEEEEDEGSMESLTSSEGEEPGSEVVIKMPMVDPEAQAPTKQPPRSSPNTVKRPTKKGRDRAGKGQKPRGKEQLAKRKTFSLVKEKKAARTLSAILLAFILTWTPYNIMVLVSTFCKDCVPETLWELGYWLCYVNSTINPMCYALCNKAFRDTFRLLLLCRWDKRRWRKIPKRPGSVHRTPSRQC

T1 sequence (P20309 whole entry): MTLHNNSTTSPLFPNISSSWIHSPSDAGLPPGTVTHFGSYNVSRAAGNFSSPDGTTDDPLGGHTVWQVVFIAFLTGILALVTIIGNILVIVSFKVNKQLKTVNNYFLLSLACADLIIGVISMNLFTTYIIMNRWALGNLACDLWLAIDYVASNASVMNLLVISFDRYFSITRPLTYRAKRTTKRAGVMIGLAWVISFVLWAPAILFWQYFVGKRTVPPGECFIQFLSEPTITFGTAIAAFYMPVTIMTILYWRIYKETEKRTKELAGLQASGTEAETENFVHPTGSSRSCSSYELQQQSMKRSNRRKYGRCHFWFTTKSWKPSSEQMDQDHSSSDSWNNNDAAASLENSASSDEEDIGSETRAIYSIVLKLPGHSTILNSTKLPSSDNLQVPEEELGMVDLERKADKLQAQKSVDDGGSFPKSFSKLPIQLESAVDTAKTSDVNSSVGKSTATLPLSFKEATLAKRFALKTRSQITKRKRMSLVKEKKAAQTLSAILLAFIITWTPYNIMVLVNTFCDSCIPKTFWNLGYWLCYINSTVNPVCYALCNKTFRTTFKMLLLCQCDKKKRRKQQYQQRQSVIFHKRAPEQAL

Structure (SMILES) | % Emax cf. ACh, M3 ([1]; listed as 2-2 Isomer 1) [%] | % Emax cf. ACh, M4 ([2]; listed as 2-2 Isomer 1) [%] | % Emax cf. ACh, M2 [3] [%] | reversal of scopolamine-induced amnesia in passive avoidance ([4]; 3, 10 and 30 mg/kg po free base, scopolamine 1 mg/kg i.p.) | ED50 ([4]; po, scopolamine 1 mg/kg i.p. 6 hours following training, read-out: approximate ED50, reversal of scopolamine-induced amnesia) [mg/kg] | % Emax cf. ACh, M3 ([1]; listed as 2-17 Isomer 2) [%] | EC50 ([2]; CHO cells stably expressing human M4, read-out: pEC50 M4 (converted)) [nM] | % Emax cf. ACh, M4 ([2]; listed as 2-17 Isomer 2) [%] | EC50 ([5]; CHO cells stably expressing human M1, read-out: pEC50 M1 (converted)) [nM] | % Emax cf. ACh, M1 ([5]; CHO cells stably expressing human M1, relative to ACh, listed as 2-17 Isomer 2) [%]
CCOC(=O)N1C2CCC1CC(N1CCC3(CC1)CNC(=O)C3)C2 (single isomer, unassigned) [Example 2-2 Isomer 1, ethyl 3-(3-oxo-2,8-diazaspiro[4.5]dec-8-yl)-8-azabicyclo[3.2.1]octane-8-carboxylate] | 17 | 53 | 0 | reverse scopolamine-induced amnesia of the paradigm in a dose-dependent manner | ~10 | – | – | – | – | –
CCOC(=O)N1C2CCC1CC(N1CCC3(CC1)OC(=O)NC3C(C)C)C2 (single isomer, unassigned) [Example 2-17 Isomer 2] | – | – | 3 | – | – | 12 | 100 | 72 | 200 | 117
